Test results taken from US8486863B2, “Activators of lateral root formation” (VIB VZW, priority 2006, dated 2013).

Key:
[1] = system: Wild-type Arabidopsis thaliana; assay: Dose-response analysis of lateral root density and root length; type: in vivo; conditions: for potency as activator of LR development (LR density): dose-response, FIG. 3
Method: FIG. 3: Dose-response analysis of class 1 (upper panel) and class 2 (lower panel) activators. Wild-type Arabidopsis thaliana seeds were germinated under standard conditions on agar plates. After 3 days of germination, seedlings were transferred to agar plates containing compound at different concentrations. Lateral root density was measured 10 days after germination. Bars represent standard errors.
FIG. 4: Dose-response analysis of A2, A11, A12, A14 and NAA. Wild-type Arabidopsis thaliana seeds were germinated under standard conditions on agar plates. After 3 days of germination, seedlings were transferred to agar plates containing compound at different concentrations and 1% DMSO. Plants transferred to agar plates containing 1% DMSO and no compound were used as controls. Lateral root density (left panels) and root length (right panels) were measured 10 days after germination. Bars represent standard errors.
For further phenotypic analysis, all plants were grown on vertically oriented square plates (Greiner Labortechnik, Austria) with solid medium derived from standard MS medium under the same conditions. 3 DAG plants were transferred to medium supplemented with compounds and were left to grow for another 7 days. After this, root length and number of LRs were counted using ImageJ 1.34 freeware.
As a subsequent step, the phenotypic effect of the 16 selected activators was determined in a dose-response analysis in which LR density (number of LRs per cm) was quantified (FIG. 3). Based upon potency and structure, two different classes of activators could be identified.

[2] = system: genes involved in auxin biosynthesis, auxin transport, auxin signaling and cell cycle; assay: Q-PCR transcript profiling of roots after compound treatment; type: in vivo, Arabidopsis thaliana; conditions: 30 μM; 6 hrs or 24 hrs treatment
Method: FIG. 5: Transcript profiling of roots of wild-type Arabidopsis thaliana plants after 6 hrs or 24 hrs treatment with A2 (upper panel), A14 (middle panel) or A11 (lower panel) at a concentration of 30 μM.
RNA was extracted with the RNeasy kit. Poly(dT) cDNA was prepared from […] of total RNA with Superscript III reverse transcriptase (Invitrogen) and quantified on an LightCycler 480 apparatus (Roche) with the SYBR Green I Master kit (Roche) according to the manufacturers instructions. Target quantifications were performed with specific primer pairs designed with the Beacon Designer 4.0 (Premier Biosoft International). All PCRs were performed in triplicate. […] The primers used to quantify gene expression levels were: […]
Using Q-PCR, the expression of selected genes involved in auxin biosynthesis, auxin transport, auxin signaling and cell cycle was analyzed in response to compound treatment (FIG. 5).

auxin signaling mutants = assay: Effect of activators on lateral root density of auxin signaling mutants (Table 2); type: in vivo, Arabidopsis thaliana
Excerpt: Afb1, Afb2, Afb3 and the triple mutant Tirlafb2afb3 were described by Dhamasiri et al. (2005). Tir1 was described by Ruegger et al., (1998); 1aa28 by Rogg et al., (2001); Tir7-1 by Ruegger et al., (1997); the Cyp79b2b3 double mutant by Ljung et al. (2005); the arf7arf19 double mutant by Fukaki et al., (2005); Aux1 by Bennett et al., (1996); Xbat32 by Nodzon et al., (2004), Axr1-12 by Timpte et al., (1995), Slr1 by Fukaki et al., 2002 and Axr3-1 by Collet et al., (2000) and the mutants were obtained from the publishing authors.
For phenotypic analysis, all mutants were grown on vertically oriented square plates (Greiner Labortechnik, Austria) with solid medium derived from standard MS medium. The plates were put in a growth chamber under continuous light (110 μE.m2.s1 photosynthetically active radiation, supplied by cool-white fluorescent tungsten tubes; Osram) at 22° C. Three days after germination, the mutant plants were transferred to medium supplemented with compounds and were left to grow for another 7 days. After this, root length and number of lateral roots were counted using ImageJ 1.34 freeware.

[3] = system: auxin receptor mutant tir1; assay: Effect of activators on the auxin receptor mutant tir1 compared with wild type; type: in vivo, Arabidopsis thaliana; conditions: tir1 mutant vs wild type, FIG. 13
Excerpt: FIG. 13: Effect of activators on the auxin receptor mutant TIR1 compared with wild type.

auxin receptor TIR1 = biological target: T1, auxin receptor TIR1 (Arabidopsis thaliana, UniProt Q38825+Q570C0); assay: In vitro pull-down binding assay to auxin receptor TIR1; conditions: in vitro binding assay (FIG. 2)
T1 construct: made in house; host or cells: wheat germ in vitro transcription/translation (IVTT) extract
T1 sequence (Q570C0 whole entry, other chains not shown): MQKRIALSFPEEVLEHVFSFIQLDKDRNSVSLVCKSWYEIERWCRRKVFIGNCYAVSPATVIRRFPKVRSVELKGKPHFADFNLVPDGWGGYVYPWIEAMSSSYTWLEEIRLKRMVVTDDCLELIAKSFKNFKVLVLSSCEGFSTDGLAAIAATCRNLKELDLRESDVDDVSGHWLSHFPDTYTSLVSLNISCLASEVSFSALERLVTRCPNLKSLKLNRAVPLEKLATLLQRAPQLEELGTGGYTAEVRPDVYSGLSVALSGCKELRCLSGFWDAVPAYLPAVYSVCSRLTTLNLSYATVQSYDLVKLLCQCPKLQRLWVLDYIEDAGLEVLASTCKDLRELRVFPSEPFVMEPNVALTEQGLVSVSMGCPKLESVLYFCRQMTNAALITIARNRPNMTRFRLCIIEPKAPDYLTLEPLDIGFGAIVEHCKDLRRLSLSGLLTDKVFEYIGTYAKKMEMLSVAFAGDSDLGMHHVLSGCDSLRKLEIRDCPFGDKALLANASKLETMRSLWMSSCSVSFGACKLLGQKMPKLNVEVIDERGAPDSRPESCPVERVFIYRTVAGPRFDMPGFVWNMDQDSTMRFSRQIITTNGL
Method: FIG. 2: In vitro binding assay to analyze binding of the 16 selected activators to the auxin receptor TIR1.
Pull-down assays with wheatgerm-expressed TIR1-Myc were performed by combining […] of IVTT reaction extract with […] of biotinylated domain II peptide and […] of EB containing 1 mg/ml BSA with auxin treatments as indicated. The assays were incubated for 30 min at 4° C. and recovered on streptavidin-agarose. The final processing of pull-down assays including electrophoresis, western transfer and blotting with anti-Myc antibodies has been described in Kepinski and Leyser, 2004.
Earlier studies have shown that sirtinol is metabolized in vivo to NAA (Dai et al., 2005) while IAA, NAA, 2,4-D act by binding directly to the auxin-receptor TIR1 (Kepinski and Leyser, 2005).

SMILES | potency as activator of LR development (LR density) [1] | stage of LR initiation at which the effect on gene expression is exerted [2] | lateral root density (auxin signaling mutants; Afb1-1, 30 uM) | lateral root density (auxin signaling mutants; Afb2-1, 30 uM) | lateral root density (auxin signaling mutants; Afb3-1, 30 uM) | lateral root density (auxin signaling mutants; Arf7Arf19, 30 uM) | lateral root density (auxin signaling mutants; Arf16, 30 uM) | lateral root density (auxin signaling mutants; Arf17, 30 uM) | lateral root density (auxin signaling mutants; Axrt-12, 30 uM) | lateral root density (auxin signaling mutants; Cyp79, 30 uM) | lateral root density (auxin signaling mutants; Iaa28-1, 30 uM) | lateral root density (auxin signaling mutants; Tir1-1, 30 uM) | lateral root density (auxin signaling mutants; Tir7-1, 30 uM) | lateral root density (auxin signaling mutants; TirTM, 30 uM) | lateral root density (auxin signaling mutants; Xbat32, 30 uM) | TIR1 dependence of the working of the compound [3] | further results
CN1C(=O)C(=Cc2ccc(-c3cccc(C(F)(F)F)c3)o2)SC1=S [A11, 3-methyl-2-thioxo-5-({5-[3-(trifluoromethyl)phenyl]-2-furyl}methylene)-1,3-thiazolidin-4-one] | most potent activators of class 2 | late stages of LR initiation (24 h) | 20.74 LR/cm | 14.04 LR/cm | 12.99 LR/cm | 0.04 LR/cm | 8.76 LR/cm | 11.04 LR/cm | 12.26 LR/cm | 13.74 LR/cm | 10.36 LR/cm | 8.95 LR/cm | 43.59 LR/cm | 0.00 LR/cm | 7.76 LR/cm | – | compound concentration that increased root density five times compared to controls ([1]; FIG. 4, 10 days after germination): 20 µM; Root length ([1]; at the concentration that increased root density five times (20 μM A11, 1.5 μM NAA)): 0.7 times the root length of controls
COc1cc(-c2nc3ccccn3c2N=Cc2cccc(Cl)c2Cl)ccc1O [A10, 4-{3-[(2,3-dichlorobenzylidene)amino]imidazo[1,2-a]pyridin-2-yl}-2-methoxyphenol] | – | – | – | – | – | – | – | – | – | – | – | – | – | – | – | strictly TIR1 dependent | lateral root density (auxin signaling mutants; Afb1-1, 3 uM): 11.79 LR/cm; lateral root density (auxin signaling mutants; Afb2-1, 3 uM): 15.90 LR/cm; lateral root density (auxin signaling mutants; Afb3-1, 3 uM): 17.08 LR/cm; lateral root density (auxin signaling mutants; Arf7Arf19, 3 uM): 0.00 LR/cm; lateral root density (auxin signaling mutants; Arf16, 3 uM): 19.95 LR/cm; lateral root density (auxin signaling mutants; Arf17, 3 uM): 10.80 LR/cm; lateral root density (auxin signaling mutants; Axrt-12, 3 uM): 7.90 LR/cm; lateral root density (auxin signaling mutants; Cyp79, 3 uM): 33.08 LR/cm; lateral root density (auxin signaling mutants; Iaa28-1, 3 uM): 0.00 LR/cm; lateral root density (auxin signaling mutants; Tir1-1, 3 uM): 0.77 LR/cm; lateral root density (auxin signaling mutants; Tir7-1, 3 uM): 8.49 LR/cm; lateral root density (auxin signaling mutants; TirTM, 3 uM): 0.00 LR/cm; lateral root density (auxin signaling mutants; Xbat32, 3 uM): 8.37 LR/cm
O=C(O)C1SCCN1c1ccccc1 (stereo not drawn) [A15, 3-phenyl-1,3-thiazolidine-2-carboxylic acid] | – | – | – | – | – | – | – | – | – | – | – | – | – | – | – | – | binding to TIR1 (auxin receptor TIR1): could bind to TIR1
COc1ccccc1CNC(=O)C(C)Sc1ccc(Cl)cc1 (stereo not drawn) [A14, 2-[(4-chlorophenyl)thio]-N-(2-methoxybenzyl)propanamide] | most potent activators of class 2 | early stages of LR initiation (6 h) | 24.29 LR/cm | 22.38 LR/cm | 30.09 LR/cm | 0.00 LR/cm | 32.75 LR/cm | 32.68 LR/cm | 34.01 LR/cm | 33.25 LR/cm | 20.71 LR/cm | 0.52 LR/cm | 33.41 LR/cm | 0.00 LR/cm | 10.88 LR/cm | strictly TIR1 dependent | –
CCOC(=O)c1c(NC(=O)COc2ccc(Cl)cc2C)sc2c1CC(C)(C)OC2 [A2, ethyl 2-{[(4-chloro-2-methylphenoxy)acetyl]amino}-5,5-dimethyl-4,7-dihydro-5H-thieno[2,3-c]pyran-3-carboxylate] | most potent activators of class 2 | early stages of LR initiation (6 h) | 13.86 LR/cm | 10.07 LR/cm | 10.03 LR/cm | 0.00 LR/cm | 9.56 LR/cm | 8.67 LR/cm | 13.97 LR/cm | 13.69 LR/cm | 4.32 LR/cm | 11.98 LR/cm | 28.57 LR/cm | 0.00 LR/cm | 9.67 LR/cm | – | –
